Measured values from paper PMC11627468, “Novel enzyme‐resistant pancreatic polypeptide analogs evoke pancreatic beta‐cell rest, enhance islet cell turnover, and inhibit food intake in mice” (Biofactors (Oxford, England), 2024).
Starred links: 1 amine or outer side, 2 acyl side, 3 side chain; linkers in the order of their positions; H or OH if unused. Residues, ends and D or L forms follow the SMILES beside them. Groups on a side chain read outwards from the residue. *: point of attachment. γGlu = O=C(O)[C@H](CCC(=O)[*:2])N[*:1]; Palmitoyl = CCCCCCCCCCCCCCCC(=O)*

What was measured:
[1] = In vitro DPP‐4 degradation; type: in vitro ADME, human; settings: isolated enzyme; peptide 50 μg with purified human DPP‐4 (5 μL, 0.01 U/L), 37°C, 8 h; stopped with 10% (v/v) trifluoroacetic acid; rp‐HPLC C‐18, UV 214 nm; peaks by MALDI‐MS; read-out: % intact peptide after 8 h DPP‐4 incubation
Procedure: PP peptides (50 μg) were incubated at 37°C for 0–8 h with 5 μL of purified human DPP‐4 enzyme (0.01 U/L, Sigma‐Aldrich, Gillingham, UK). Degradation reactions were terminated via the addition of 10 μL 10% (v/v) trifluoroacetic acid/water solution. Reaction mixes were separated by reverse phase rp‐HPLC using a Phenomenex C‐18 analytical column (250 × 4.6 mm^2) with UV absorbance detection at 214 nm (ThermoQuest SpectraSystem UV2000 detector). HPLC peaks of interest were collected and analyzed by MALDI‐TOF MS on a Perseptive Biosystems Voyager‐DE Biospectrometry (Hertfordshire, UK).

C57BL/6 mice [2] = test: Acute food intake in overnight fasted mice; type: in vivo; settings: i.p., overnight fasted mice
Procedure: (§1) Acute in vivo studies were conducted in groups (n = 6) of 4‐month‐old male C57BL/6 mice (Envigo, Huntington, UK). All mice were maintained on standard rodent chow (10% fat, 30% protein, and 60% carbohydrate; Trouw Nutrition, Northwich, UK), and drinking water provided ad libitum. Mice were housed individually and kept in a temperature‐controlled environment (22 ± 2°C), with a 12‐h light/dark cycle. Experiments were carried out in accordance with the UK Animal Scientific Procedures Act 1986 as well as being approved by Ulster University Animal Ethics Review Committee (AWERB) committee and protected by the UK Home Office Animal project license number PPL2902, approved on April 26, 2021. Acute effects of test peptides on food intake were tested in overnight (16 h) fasted mice. Briefly, fasted mice were administered an intraperitoneal (i.p.) injection of saline vehicle (0.9% (w/v) NaCl) alone or in combination with test peptides (each at 25, 75, or 200 nmol/kg bw) and cumulative food intake measured at regular intervals, to assess the pharmacodynamic profile of the test peptides. For food intake studies, mice were provided with preweighed rodent maintenance diet in their food hopper at t = 0 min, which was then re‐weighed at each timepoint with all due care taken to account for any wastage or crumbling of the food pellets. In this regard, the investigator was present at all times during the 180‐min test period to ensure accuracy and consistency in all measurements. Furthermore, effects of PP or related peptides (25 nmol/kg bw) on glucose homeostasis and insulin secretion were evaluated in overnight fasted mice following i.p. injection of glucose alone (18 mmol/kg bw) or in combination with PP peptides (each at 25 nmol/kg bw).

C57BL/6 mice [3] = test: Glucose tolerance in mice; type: in vivo; settings: PP peptide 25 nmol/kg with CCK‐8 25 nmol/kg and glucose 18 mmol/kg i.p.; n = 6
Procedure: as §1, with “bw). […] Blood glucose was measured immediately using a hand‐held Ascencia Contour blood glucose meter (Bayer Healthcare, Newbury, Berkshire, UK). […]” for “bw).”

C57BL/6 mice [4] = test: Glucose‐stimulated plasma insulin in mice; type: in vivo; settings: peptide 25 nmol/kg with glucose 18 mmol/kg i.p., versus glucose control; n = 6
Procedure: as §1, with “bw). […] Blood glucose was measured immediately using a hand‐held Ascencia Contour blood glucose meter (Bayer Healthcare, Newbury, Berkshire, UK). For plasma insulin, blood was collected in chilled fluoride/heparin‐coated microcentrifuge tubes (Sarstedt, Numbrecht, Germany) and centrifuged using a Beckman microcentrifuge (Beckman Instruments, Galway, Ireland) for 10 min at 12,000 rpm. Plasma was separated and stored at −20°C, until determination of plasma insulin by radioimmunoassay.[23]” for “bw).”

CCCCCCCCCCCCCCCC(=O)N[C@@H](CCC(=O)NCCCC[C@H](NC(=O)[C@H](C)NC(=O)[C@H](CC(N)=O)NC(=O)[C@H](CC(=O)O)NC(=O)CNC(=O)[C@@H]1CCCN1C(=O)[C@H](Cc1ccc(O)cc1)NC(=O)[C@@H](NC(=O)[C@@H]1CCCN1C(=O)[C@H](CCC(=O)O)NC(=O)[C@@H]1CCCN1C(=O)[C@@H]1CCCN1C(=O)[C@H](C)N)C(C)C)C(=O)N1CCC[C@H]1C(=O)N[C@@H](CCC(=O)O)C(=O)N[C@@H](CCC(N)=O)C(=O)N[C@@H](CCSC)C(=O)N[C@@H](C)C(=O)N[C@@H](CCC(N)=O)C(=O)N[C@@H](Cc1ccc(O)cc1)C(=O)N[C@@H](C)C(=O)N[C@@H](C)C(=O)N[C@@H](CC(=O)O)C(=O)N[C@@H](CC(C)C)C(=O)N[C@@H](CCCNC(=N)N)C(=O)N[C@@H](CCCNC(=N)N)C(=O)N[C@@H](Cc1ccc(O)cc1)C(=O)N[C@H](C(=O)N[C@@H](CC(N)=O)C(=O)N[C@@H](CCSC)C(=O)N[C@@H](CC(C)C)C(=O)N[C@H](C(=O)N[C@@H](CCCNC(=N)N)C(=O)N1CCC[C@H]1C(=O)N[C@@H](CCCNC(=N)N)C(=O)N[C@@H](Cc1ccc(O)cc1)C(N)=O)[C@@H](C)O)[C@@H](C)CC)C(=O)O [[P^3,K^13Pal]PP] (H-APPEPVYPGDNAK([γGlu-Palmitoyl])PEQMAQYAADLRRYINMLTRPRY-NH2; N-terminus assumed)
remaining at 8 h [1]: > 99% | food intake in overnight fasted mice, summary in discussion (C57BL/6 mice [2]): retained impressive effects to restrict food intake | effect on CCK‐8 benefit on glucose disposal (C57BL/6 mice [3]): mildly impair the overall glucose‐lowering action of CCK‐8 | glucose‐induced insulin secretion (plasma insulin) (C57BL/6 mice [4]): slightly decreasing (p = <0.05 to 0.01)
